# Assay results taken from paper PMC5218480 (PLoS ONE, 2017).
# Test system: MV-4-11 cells
# Test: Gene expression microarray analysis (Affymetrix PrimeView) and GSEA
# Format: cell-based, human
# Set-up: RFU PODN (11730768_x_at) / Fold change /veh PODN (11730768_x_at) / RFU LINC00158 (11744669_a_at) / Fold change /veh LINC00158 (11744669_a_at) / RFU DUSP10 (11751237_a_at) / Fold change /veh DUSP10 (11751237_a_at) / RFU ID3 (11757404_x_at) / Fold change /veh ID3 (11757404_x_at) / RFU PLEKHG5 (11737974_s_at) / Fold change /veh PLEKHG5 (11737974_s_at) / RFU LRRC4B (11730491_at) / Fold change /veh LRRC4B (11730491_at) / RFU GIMAP4 (11747438_a_at) / Fold change /veh GIMAP4 (11747438_a_at) / RFU KRT8 (11758183_x_at) / Fold change /veh KRT8 (11758183_x_at) / RFU CNN1 (11734310_a_at) / Fold change /veh CNN1 (11734310_a_at) / RFU VPS37D (11726825_at) / Fold change /veh VPS37D (11726825_at) / RFU C10orf10 (11716522_x_at) / Fold change /veh C10orf10 (11716522_x_at) / RFU KIR2DL2 /// KIR2DL4 /// KIR2DL5A /// KIR2DL5B /// KIR2DS1 /// KIR2DS2 /// KIR2DS3 /// KIR2DS4 /// KIR3DL3 /// KIR3DL3 /// KIR3DS1 (11738374_at) / Fold change /veh KIR2DL2 /// KIR2DL4 /// KIR2DL5A /// KIR2DL5B /// KIR2DS1 /// KIR2DS2 /// KIR2DS3 /// KIR2DS4 /// KIR3DL3 /// KIR3DL3 /// KIR3DS1 (11738374_at) / RFU C1QL1 (11718748_at) / Fold change /veh C1QL1 (11718748_at) / RFU TMPRSS4 (11747572_a_at) / Fold change /veh TMPRSS4 (11747572_a_at) / RFU HAMP (11756126_x_at) / Fold change /veh HAMP (11756126_x_at) / RFU RNFT2 (11725882_a_at) / Fold change /veh RNFT2 (11725882_a_at) / RFU NR4A2 (11747474_a_at) / Fold change /veh NR4A2 (11747474_a_at) / RFU ABCC12 (11746883_a_at) / Fold change /veh ABCC12 (11746883_a_at) / RFU TMEM136 (11760407_x_at) / Fold change /veh TMEM136 (11760407_x_at) / RFU CLDN22 /// WWC2 (11732394_at) / Fold change /veh CLDN22 /// WWC2 (11732394_at) / RFU HLA-DPB1 (11760878_x_at) / Fold change /veh HLA-DPB1 (11760878_x_at) / RFU SPINT1 (11716480_a_at) / Fold change /veh SPINT1 (11716480_a_at) / RFU GAP43 (11754022_s_at) / Fold change /veh GAP43 (11754022_s_at) / RFU A4GNT (11735810_at) / Fold change /veh A4GNT (11735810_at) / RFU PRB3 (11715151_x_at) / Fold change /veh PRB3 (11715151_x_at) / RFU TUBB4B (11761932_at) / Fold change /veh TUBB4B (11761932_at) / RFU CAPN14 (11732068_a_at) / Fold change /veh CAPN14 (11732068_a_at) / RFU TMCC2 (11721928_a_at) / Fold change /veh TMCC2 (11721928_a_at) / RFU IRGQ (11745062_a_at) / Fold change /veh IRGQ (11745062_a_at) / RFU FAM174B (11720279_a_at) / Fold change /veh FAM174B (11720279_a_at) / RFU TMPRSS4 (11748680_a_at) / Fold change /veh TMPRSS4 (11748680_a_at) / RFU FAM212B (11763350_a_at) / Fold change /veh FAM212B (11763350_a_at) / RFU PLEKHG5 (11743358_a_at) / Fold change /veh PLEKHG5 (11743358_a_at) / RFU ZSCAN30 (11745921_a_at) / Fold change /veh ZSCAN30 (11745921_a_at) / RFU CMKLR1 (11741424_a_at) / Fold change /veh CMKLR1 (11741424_a_at) / RFU LOC101060620 /// MAPK8IP1 (11723275_at) / Fold change /veh LOC101060620 /// MAPK8IP1 (11723275_at) / RFU SPTSSB (11747773_x_at) / Fold change /veh SPTSSB (11747773_x_at) / RFU PRSS12 (11739890_at) / Fold change /veh PRSS12 (11739890_at) / RFU BIN1 (11741810_x_at) / Fold change /veh BIN1 (11741810_x_at) / RFU WNT11 (11732464_a_at) / Fold change /veh WNT11 (11732464_a_at) / RFU C10orf10 (11716521_a_at) / Fold change /veh C10orf10 (11716521_a_at) / RFU C5orf56 (11738089_at) / Fold change /veh C5orf56 (11738089_at) / RFU CYB561 (11721691_x_at) / Fold change /veh CYB561 (11721691_x_at) / RFU ANKRD19P (11752326_a_at) / Fold change /veh ANKRD19P (11752326_a_at) / RFU OR2T12 /// OR2T33 /// OR2T8 (11738714_s_at) / Fold change /veh OR2T12 /// OR2T33 /// OR2T8 (11738714_s_at) / RFU VCAN (11748164_a_at) / Fold change /veh VCAN (11748164_a_at) / RFU JSRP1 (11732532_at) / Fold change /veh JSRP1 (11732532_at) / RFU KRTAP10-11 (11738290_x_at) / Fold change /veh KRTAP10-11 (11738290_x_at) / RFU MYO3A (11730013_a_at) / Fold change /veh MYO3A (11730013_a_at) / RFU EBF3 (11725865_a_at) / Fold change /veh EBF3 (11725865_a_at) / RFU CAMK2N1 (11719241_x_at) / Fold change /veh CAMK2N1 (11719241_x_at) / RFU C5orf56 (11738088_a_at) / Fold change /veh C5orf56 (11738088_a_at) / RFU OLFML3 (11715873_a_at) / Fold change /veh OLFML3 (11715873_a_at) / RFU LOC100653217 /// NTM (11731650_a_at) / Fold change /veh LOC100653217 /// NTM (11731650_a_at) / RFU MAPK11 (11762145_a_at) / Fold change /veh MAPK11 (11762145_a_at) / RFU FIZ1 (11724087_x_at) / Fold change /veh FIZ1 (11724087_x_at) / RFU OASL (11726364_x_at) / Fold change /veh OASL (11726364_x_at) / RFU SOX15 (11748057_x_at) / Fold change /veh SOX15 (11748057_x_at) / RFU CD79A (11719716_a_at) / Fold change /veh CD79A (11719716_a_at) / RFU HIST1H1D (11736915_at) / Fold change /veh HIST1H1D (11736915_at) / RFU CASKIN2 (11723855_a_at) / Fold change /veh CASKIN2 (11723855_a_at) / RFU LOC730098 (11760151_x_at) / Fold change /veh LOC730098 (11760151_x_at) / RFU OR4N2 (11742367_at) / Fold change /veh OR4N2 (11742367_at) / RFU PRRT2 (11749266_a_at) / Fold change /veh PRRT2 (11749266_a_at) / RFU SNX32 (11753110_a_at) / Fold change /veh SNX32 (11753110_a_at) / RFU CDHR5 (11726645_a_at) / Fold change /veh CDHR5 (11726645_a_at) / RFU RCAN1 (11760418_a_at) / Fold change /veh RCAN1 (11760418_a_at) / RFU FAM167A (11723789_a_at) / Fold change /veh FAM167A (11723789_a_at) / RFU FAM26E (11764081_at) / Fold change /veh FAM26E (11764081_at) / RFU ISYNA1 (11749810_s_at) / Fold change /veh ISYNA1 (11749810_s_at) / RFU ACY1 (11761880_at) / Fold change /veh ACY1 (11761880_at) / RFU 11764098_at / Fold change /veh 11764098_at / RFU SAMD14 (11745864_x_at) / Fold change /veh SAMD14 (11745864_x_at) / RFU NPB (11741838_a_at) / Fold change /veh NPB (11741838_a_at) / RFU TMPRSS6 (11731388_a_at) / Fold change /veh TMPRSS6 (11731388_a_at) / RFU KRTAP10-2 (11738614_at) / Fold change /veh KRTAP10-2 (11738614_at) / RFU ARHGAP8 /// PRR5-ARHGAP8 (11727945_x_at) / Fold change /veh ARHGAP8 /// PRR5-ARHGAP8 (11727945_x_at) / RFU KRTAP5-7 /// NADSYN1 (11734609_at) / Fold change /veh KRTAP5-7 /// NADSYN1 (11734609_at) / RFU RASL12 (11751679_a_at) / Fold change /veh RASL12 (11751679_a_at) / RFU CDKN2B (11736163_a_at) / Fold change /veh CDKN2B (11736163_a_at) / RFU PRF1 (11729649_at) / Fold change /veh PRF1 (11729649_at) / RFU, ZNF638 /// ZNF638-IT1 / Fold change vs veh, ZNF638 /// ZNF638-IT1 / RFU, PANK3 / Fold change vs veh, PANK3 / RFU, SH3YL1 / Fold change vs veh, SH3YL1 / RFU, ZEB2 / Fold change vs veh, ZEB2 / RFU, NRIP1 / Fold change vs veh, NRIP1 / RFU, PTTG1IP / Fold change vs veh, PTTG1IP / RFU, CAPN2 / Fold change vs veh, CAPN2 / RFU, MED14 / Fold change vs veh, MED14 / RFU, SNORA58 / Fold change vs veh, SNORA58 / RFU, C1orf63 / Fold change vs veh, C1orf63 / RFU, LRRFIP1 / Fold change vs veh, LRRFIP1 / RFU, NDUFAF7 / Fold change vs veh, NDUFAF7 / RFU, SLC12A2 / Fold change vs veh, SLC12A2 / RFU, IBTK / Fold change vs veh, IBTK / RFU, ESF1 / Fold change vs veh, ESF1 / Fold change vs veh, TMEM50B / RFU, TAOK1 / Fold change vs veh, TAOK1 / RFU, ACBD3 / Fold change vs veh, ACBD3 / RFU, TMA16 / Fold change vs veh, TMA16 / RFU, RWDD3 / Fold change vs veh, RWDD3 / RFU, BCAT1 / Fold change vs veh, BCAT1 / RFU, EDEM3 / Fold change vs veh, EDEM3 / RFU, TMEM33 / Fold change vs veh, TMEM33 / RFU, WDR75 / Fold change vs veh, WDR75 / RFU, AHCTF1 / Fold change vs veh, AHCTF1 / RFU, TFRC / Fold change vs veh, TFRC / RFU, ZDHHC17 / Fold change vs veh, ZDHHC17 / RFU, NOM1 / Fold change vs veh, NOM1 / RFU, ARL8B / Fold change vs veh, ARL8B / RFU, ZBTB11 / Fold change vs veh, ZBTB11 / RFU, TAMM41 / Fold change vs veh, TAMM41 / RFU, KIAA1704 /// LOC100996395 / Fold change vs veh, KIAA1704 /// LOC100996395 / RFU, ING1 / Fold change vs veh, ING1 / RFU, TRMT61B / Fold change vs veh, TRMT61B / RFU, FUBP3 / Fold change vs veh, FUBP3 / RFU, TP53 / Fold change vs veh, TP53 / RFU, TNKS2 / Fold change vs veh, TNKS2 / RFU, ZFP14 / Fold change vs veh, ZFP14 / RFU, ACTR2 / Fold change vs veh, ACTR2 / RFU, PPP3R1 / Fold change vs veh, PPP3R1 / RFU, PIK3R1 / Fold change vs veh, PIK3R1 / RFU, HNRNPA1 / Fold change vs veh, HNRNPA1 / RFU, RNF170 / Fold change vs veh, RNF170 / RFU, ZNF28 / Fold change vs veh, ZNF28 / RFU, RNGTT / Fold change vs veh, RNGTT / RFU, OGT / Fold change vs veh, OGT / RFU, BRD1 / Fold change vs veh, BRD1 / RFU, MARS / Fold change vs veh, MARS / RFU, ZNF655 / Fold change vs veh, ZNF655 / RFU, FAHD1 / Fold change vs veh, FAHD1 / RFU, BDP1 / Fold change vs veh, BDP1 / RFU, LRRCC1 / Fold change vs veh, LRRCC1 / RFU, ARID1A / Fold change vs veh, ARID1A / RFU, ZNF146 / Fold change vs veh, ZNF146 / RFU, ZNF330 / Fold change vs veh, ZNF330 / RFU, GPN3 / Fold change vs veh, GPN3 / RFU, C9orf123 / Fold change vs veh, C9orf123 / RFU, N4BP2L2 / Fold change vs veh, N4BP2L2 / RFU, ARFIP1 / Fold change vs veh, ARFIP1 / RFU, FAM179B / Fold change vs veh, FAM179B / RFU, BCL10 / Fold change vs veh, BCL10 / RFU, UHRF1BP1L / Fold change vs veh, UHRF1BP1L / RFU, BET1 / Fold change vs veh, BET1 / RFU, CNOT2 / Fold change vs veh, CNOT2 / RFU, ZNF268 / Fold change vs veh, ZNF268 / Fold change vs veh, ZNF507 / RFU, DGCR2 / Fold change vs veh, DGCR2 / RFU, WDSUB1 / Fold change vs veh, WDSUB1 / Fold change vs veh, HSP90B1 /// MIR3652 / RFU, ADSS / Fold change vs veh, ADSS / RFU, GK / Fold change vs veh, GK / RFU, ZNF148 / Fold change vs veh, ZNF148 / RFU, TAF9 / Fold change vs veh, TAF9 / RFU, SLC1A5 / Fold change vs veh, SLC1A5 / RFU, SLMO2 / Fold change vs veh, SLMO2 / RFU, ABCC4 / Fold change vs veh, ABCC4 / RFU, LOC101060439 /// RAP1B / Fold change vs veh, LOC101060439 /// RAP1B / RFU, RFX7 / Fold change vs veh, RFX7 / RFU, GTPBP10 / Fold change vs veh, GTPBP10 / RFU, CNEP1R1 / Fold change vs veh, CNEP1R1 / RFU, BIVM-ERCC5 /// ERCC5 / Fold change vs veh, BIVM-ERCC5 /// ERCC5 / RFU, ILF3 / Fold change vs veh, ILF3 / RFU 11762660_at / Fold change /veh 11762660_at / RFU VCAN (11757783_s_at) / Fold change /veh VCAN (11757783_s_at) / RFU DDX43 (11728927_at) / Fold change /veh DDX43 (11728927_at) / RFU KRT8 (11758188_x_at) / Fold change /veh KRT8 (11758188_x_at) / RFU NKD1 (11759106_at) / Fold change /veh NKD1 (11759106_at) / RFU SRD5A1 (11742802_a_at) / Fold change /veh SRD5A1 (11742802_a_at) / RFU TPSAB1 /// TPSB2 (11721975_s_at) / Fold change /veh TPSAB1 /// TPSB2 (11721975_s_at) / RFU GSTM3 (11746129_a_at) / Fold change /veh GSTM3 (11746129_a_at) / RFU IL23R (11737362_x_at) / Fold change /veh IL23R (11737362_x_at) / RFU TMEM51 (11727254_a_at) / Fold change /veh TMEM51 (11727254_a_at) / RFU PIWIL2 (11732686_x_at) / Fold change /veh PIWIL2 (11732686_x_at) / RFU ORM1 (11744905_x_at) / Fold change /veh ORM1 (11744905_x_at) / RFU CCDC152 (11743942_at) / Fold change /veh CCDC152 (11743942_at) / RFU ECM1 (11717891_a_at) / Fold change /veh ECM1 (11717891_a_at) / RFU IL23R (11748794_a_at) / Fold change /veh IL23R (11748794_a_at) / RFU TNFAIP8L3 (11732012_x_at) / Fold change /veh TNFAIP8L3 (11732012_x_at) / RFU MBOAT4 (11741988_at) / Fold change /veh MBOAT4 (11741988_at) / RFU 11764193_at / Fold change /veh 11764193_at / RFU TMEM53 (11763286_at) / Fold change /veh TMEM53 (11763286_at) / RFU MAGEB2 (11727129_at) / Fold change /veh MAGEB2 (11727129_at) / RFU TMEM200A (11744735_a_at) / Fold change /veh TMEM200A (11744735_a_at) / RFU CCDC152 (11751479_a_at) / Fold change /veh CCDC152 (11751479_a_at) / RFU FAM211A (11726209_a_at) / Fold change /veh FAM211A (11726209_a_at) / RFU RGS16 (11746705_a_at) / Fold change /veh RGS16 (11746705_a_at) / RFU VCAN (11755009_s_at) / Fold change /veh VCAN (11755009_s_at) / RFU RHOB (11743442_s_at) / Fold change /veh RHOB (11743442_s_at) / RFU RGS16 (11720943_a_at) / Fold change /veh RGS16 (11720943_a_at) / RFU RGS16 (11720944_at) / Fold change /veh RGS16 (11720944_at) / RFU, VPS4B / Fold change vs veh, VPS4B / RFU, CREB1 / Fold change vs veh, CREB1 / RFU, DNAJC13 / Fold change vs veh, DNAJC13 / RFU, GNAQ / Fold change vs veh, GNAQ / RFU, CDK5R1 / Fold change vs veh, CDK5R1 / RFU, ZRANB3 / Fold change vs veh, ZRANB3 / RFU, CUL4A / Fold change vs veh, CUL4A / RFU, CCNY / Fold change vs veh, CCNY / RFU, UFL1 / Fold change vs veh, UFL1 / RFU, COG3 / Fold change vs veh, COG3 / RFU, DIAPH2 / Fold change vs veh, DIAPH2 / RFU, SKA2 / Fold change vs veh, SKA2 / RFU, AFF3 / Fold change vs veh, AFF3 / RFU, LMF1 / Fold change vs veh, LMF1 / RFU, IPO11 / Fold change vs veh, IPO11 / RFU, DFFB / Fold change vs veh, DFFB / RFU, FOXP1 / Fold change vs veh, FOXP1 / RFU, CARD8 / Fold change vs veh, CARD8 / RFU, STRN3 / Fold change vs veh, STRN3 / RFU, ADK / Fold change vs veh, ADK / RFU, RASSF2 / Fold change vs veh, RASSF2 / RFU, WIPF1 / Fold change vs veh, WIPF1 / RFU, LARP1B / Fold change vs veh, LARP1B / RFU, RASA1 / Fold change vs veh, RASA1 / RFU, RB1 / Fold change vs veh, RB1 / RFU, PPFIA1 / Fold change vs veh, PPFIA1 / RFU, MAT2A / Fold change vs veh, MAT2A / RFU, CCT5 / Fold change vs veh, CCT5 / RFU, WDR92 / Fold change vs veh, WDR92 / RFU, CUX1 / Fold change vs veh, CUX1 / RFU, TTC7A / Fold change vs veh, TTC7A / RFU, TMEM135 / Fold change vs veh, TMEM135 / RFU, DEPTOR / Fold change vs veh, DEPTOR / RFU, CPM / Fold change vs veh, CPM / RFU, DNAJB6 / Fold change vs veh, DNAJB6 / RFU, CACNA2D3 / Fold change vs veh, CACNA2D3 / RFU, DTX4 / Fold change vs veh, DTX4 / RFU, TFCP2 / Fold change vs veh, TFCP2 / RFU, GMCL1 /// GMCL1P1 / Fold change vs veh, GMCL1 /// GMCL1P1 / RFU, AEBP2 / Fold change vs veh, AEBP2 / RFU, SNHG1 /// SNORD22 /// SNORD25 /// SNORD26 /// SNORD27 /// SNORD28 /// SNORD29 /// SNORD31 / Fold change vs veh, SNHG1 /// SNORD22 /// SNORD25 /// SNORD26 /// SNORD27 /// SNORD28 /// SNORD29 /// SNORD31 / Fold change (Aza/veh), C12orf56 (ProbeSet 11735607_a_at) / Fold change (ACY-1035/veh), C12orf56 (ProbeSet 11735607_a_at) / Fold change (Aza/veh), FGFR1OP (ProbeSet 11751329_s_at) / Fold change (ACY-1035/veh), FGFR1OP (ProbeSet 11751329_s_at) / Fold change (Aza/veh), VPS36 (ProbeSet 11739960_a_at) / Fold change (ACY-1035/veh), VPS36 (ProbeSet 11739960_a_at) / RFU SYPL1 (11715823_x_at) / Fold change /veh SYPL1 (11715823_x_at) / RFU IGFBP7 (11715501_s_at) / Fold change /veh IGFBP7 (11715501_s_at) / RFU REEP3 (11722064_at) / Fold change /veh REEP3 (11722064_at) / RFU IGLL1 (11728026_x_at) / Fold change /veh IGLL1 (11728026_x_at): dose or concentration left out as unconfirmed
# Settings: MV-4-11 cells, 48 hours
smiles,measurement,value
Nc1ccc(-c2cccs2)cc1NC(=O)c1ccc2c(c1)cc(C1CC1)n2CCN1CCOCC1 [ACY-1035],RFU RGS16 (11746705_a_at),52.79 RFU
